Results reported in PubChem BioAssay (NCI).
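Dose response: 5 concentrations. Exposure: 48 h. Format: 96-well plates. Endpoint: linear interpolation; highest concentration if not reached. GI50 = concentration required for 50% inhibition of growth. TGI: concentration producing complete growth inhibition.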

Columns and labels:
Assay in all cases: NCI tumour cell line growth inhibition, 48 h
[1] = system: BT-549 breast
[2] = system: LXFL 529 NSCLC
[3] = system: XF 498 CNS
[4] = system: DLD-1 colon
[5] = system: P388 leukemia
[6] = system: P388/ADR leukemia
[7] = system: SN12K1 renal

## O=C(N/N=C(/c1ccccc1)C(F)(F)F)c1ccncc1
[1]
  TGI: > 100 µM

## CCCc1[nH]c(SCCCCCCCCSc2nc(-c3ccc(F)cc3)c(CCC)[nH]2)nc1-c1ccc(F)cc1
[2]
  TGI: > 100 µM

## CC1SC(c2ccccc2)N(CCc2cccs2)C1=O (configuration not stated)
[1]
  GI50: 3.35 µM
  TGI: 12.9 µM

## CCOC(=O)CSc1nc(N)c2c(-c3ccc(OC)c(OC)c3)c3c(nc2n1)CCCC3
[1]
  TGI: > 100 µM

## Cc1cccc2nc3c(C(=O)NCCN(C)C)cccc3cc12
[3]
  TGI: 3.24 µM
[4]
  TGI: 7.78 µM
[5]
  TGI: 11.7 µM
[6]
  TGI: 11.8 µM
[7]
  TGI: 5.26 µM

## CCN(CC)CC(C)Nc1ccc([N+](=O)[O-])c2sc3ccccc3c(=O)c12 (configuration not stated)
[1]
  GI50: 5.03 µM
  TGI: 21.4 µM

## CCS(=O)(=O)Nc1ccc(Nc2c3ccccc3nc3ccccc23)c(OC)c1
[3]
  TGI: 2.01 µM
[4]
  TGI: 17.3 µM
[5]
  TGI: 0.214 µM
[6]
  TGI: 1.53 µM
[7]
  TGI: 4.11 µM
